# Measured values published in patent US7501418B2, “Fused heterocyclic isoxazoline derivatives and their use as anti-depressants” (Janssen Pharmaceutica, N.V., priority 2002, dated 2009).
# pIC50: −log10 of the molar value. Counter-ions that a name gives are not always drawn. Like-named read-outs stand apart in the source and are kept apart here.
# How the values were obtained:
# hα2C receptor = biological target: T1, hα2C receptor (Homo sapiens, UniProt P18825); test: Radioligand binding experiment for α2C-adrenergic receptor ([3H]-raulwolscine); settings: for IC50: read-out: hα2C (pIC50) (converted)
# T1 construct: expressed in transfected cells
# T1 sequence (P18825 1-462): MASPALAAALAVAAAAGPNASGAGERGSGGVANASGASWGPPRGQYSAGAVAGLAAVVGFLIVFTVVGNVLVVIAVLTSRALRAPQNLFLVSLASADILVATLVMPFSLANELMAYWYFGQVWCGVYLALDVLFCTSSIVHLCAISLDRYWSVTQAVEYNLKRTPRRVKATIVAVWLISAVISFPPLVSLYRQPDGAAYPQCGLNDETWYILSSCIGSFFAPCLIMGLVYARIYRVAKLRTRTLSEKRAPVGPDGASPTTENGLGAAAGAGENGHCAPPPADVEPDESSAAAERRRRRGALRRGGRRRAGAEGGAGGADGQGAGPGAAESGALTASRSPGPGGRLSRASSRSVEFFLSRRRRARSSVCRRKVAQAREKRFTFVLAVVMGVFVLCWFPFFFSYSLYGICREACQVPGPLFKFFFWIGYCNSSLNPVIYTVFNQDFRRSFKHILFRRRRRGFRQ
# Protocol: (§1) In general, a low concentration of a radioligand with a high binding affinity for a particular receptor or transporter is incubated with a sample of a tissue preparation enriched in a particular receptor or transporter or with a preparation of cells expressing cloned human receptors in a buffered medium. During the incubation, the radioligand binds to the receptor or transporter. When equilibrium of binding is reached, the receptor bound radioactivity is separated from the non-bound radioactivity, and the receptor- or transporter-bound activity is counted. The interaction of the test compounds with the receptor is assessed in competition binding experiments. Various concentrations of the test compound are added to the incubation mixture containing the receptor- or transporter preparation and the radioligand. The test compound in proportion to its binding affinity and its concentration inhibits binding of the radioligand. The radioligand used for hα2A, hα2B and hα2C receptor binding was [^3H]-raulwolscine and for the h5-HT transporter was [^3H]paroxetine. CHO cells, stabile transfected with human adrenergic-α2A-, -α2B or α2C receptor cDNA, were cultured in Dulbecco's Modified Eagle's Medium (DMEM)/Nutrient mixture Ham's F12 (ratio 1:1)(Gibco, Gent-Belgium) supplemented with 10% heat inactivated fetal calf serum (Life Technologies, Merelbeke-Belgium) and antibiotics (100 IU/ml penicillin G, 100 μg/ml streptomycin sulphate, 110 μg/ml pyruvic acid and 100 μg/ml L-glutamine). One day before collection, cells were induced with 5 mM sodiumbutyrate. Upon 80-90% of confluence, cells were scraped in phosphate buffered saline without Ca^2+ and Mg^2+ and collected by centrifugation at 1500×g for 10 min. The cells were homogenised in Tris-HCl 50 mM using an Ultraturrax homogenizer and centrifuged for 10 min at 23,500×g. The pellet was washed once by resuspension and rehomogenization and the final pellet was resuspended in Tris-HCl, divided in 1 ml aliquots and stored at −70° C. Membranes were thawed and re-homogenized in incubation buffer (glycylglycine 25 mM, pH 8.0). In a total volume of 500 μl, 2-10 μg protein was incubated with [^3H]raulwolscine (NET-722) (New England Nuclear, USA) (1 nM final concentration) with or without competitor for 60 min at 25° C. followed by rapid filtration over GF/B filter using a Filtermate196 harvester (Packard, Meriden, Conn.). Filters were rinsed extensively with ice-cold rinsing buffer (Tris-HCl 50 mM pH 7.4). Filter-bound radioactivity was determined by scintillation counting in a Topcount (Packard, Meriden, Conn.) and results were expressed as counts per minute (cpm). Non-specific binding was determined in the presence of 1 μM oxymetazoline for hα2A- and hα2B receptors and 1 μM spiroxatrine for hα2C receptors. Data from assays in the presence of compound were calculated as a percentage of total binding measured in the absence of test compound. Inhibition curves, plotting percent of total binding versus the log value of the concentration of the test compound, were automatically generated, and sigmoidal inhibition curves were fitted using non-linear regression. The pIC50 values of test compounds were derived from individual curves.
# h5-HT transporter = biological target: T2, h5-HT transporter (Homo sapiens, UniProt P31645); test: Radioligand binding experiment for 5-HT transporter ([3H]paroxetine); settings: human platelet membranes, [3H]paroxetine 0.5 nM; for IC50: read-out: 5-HTT (pIC50) (converted); for pIC50: 5-HTT (pIC50)
# T2 construct: Human platelet membranes (Oceanix Biosciences Corporation, Hanover, Md., USA) were thawed; tissue Oceanix Biosciences Corporation, Hanover, Md., USA; host or cells: human platelet membranes
# Protocol: In general, a low concentration of a radioligand with a high binding affinity for a particular receptor or transporter is incubated with a sample of a tissue preparation enriched in a particular receptor or transporter or with a preparation of cells expressing cloned human receptors in a buffered medium. During the incubation, the radioligand binds to the receptor or transporter. When equilibrium of binding is reached, the receptor bound radioactivity is separated from the non-bound radioactivity, and the receptor- or transporter-bound activity is counted. The interaction of the test compounds with the receptor is assessed in competition binding experiments. Various concentrations of the test compound are added to the incubation mixture containing the receptor- or transporter preparation and the radioligand. The test compound in proportion to its binding affinity and its concentration inhibits binding of the radioligand. The radioligand used for hα2A, hα2B and hα2C receptor binding was [^3H]-raulwolscine and for the h5-HT transporter was [^3H]paroxetine. Human platelet membranes (Oceanix Biosciences Corporation, Hanover, Md., USA) were thawed, diluted in buffer (Tris-HCl 50 mM, 120 mM NaCl and 5 mM KCl) and quickly (max 3 s) homogenised with an Ultraturrax homogenizer. In a total volume of 250 μL, 50-100 μg protein was incubated with [^3H]paroxetine (NET-869) (New England Nuclear, USA) (0.5 nM final concentration) with or without competitor for 60 min at 25 ° C. Incubation was stopped by rapid filtration of the incubation mixture over GF/B filters, pre-wetted with 0.1% polyethyleneamine, using a Filtermate196 harvester (Packard, Meriden, Conn.). Filters were rinsed extensively with ice-cold buffer and radioactivity on the filters was counted in a Topcount liquid scintillation counter (Packard, Meriden, Conn.). Data were expressed as cpm. Imipramine (at 1 μM final concentration) was used to determine the non-specific binding. Data from assays in the presence of compound were calculated as a percentage of total binding measured in the absence of test compound. Inhibition curves, plotting percent of total binding versus the log value of the concentration of the test compound, were automatically generated, and sigmoidal inhibition curves were fitted using non-linear regression. The pIC50 values of test compounds were derived from individual curves.
# hα2A receptor = biological target: T3, hα2A receptor (Homo sapiens, UniProt P08913); test: Radioligand binding experiment for α2A-adrenergic receptor ([3H]-raulwolscine); settings: CHO cell membranes with human α2A receptor, [3H]raulwolscine 1 nM; for IC50: read-out: hα2A (pIC50) (converted); for pIC50: hα2A (pIC50)
# T3 construct: expressed in transfected cells
# T3 sequence (P08913 1-465): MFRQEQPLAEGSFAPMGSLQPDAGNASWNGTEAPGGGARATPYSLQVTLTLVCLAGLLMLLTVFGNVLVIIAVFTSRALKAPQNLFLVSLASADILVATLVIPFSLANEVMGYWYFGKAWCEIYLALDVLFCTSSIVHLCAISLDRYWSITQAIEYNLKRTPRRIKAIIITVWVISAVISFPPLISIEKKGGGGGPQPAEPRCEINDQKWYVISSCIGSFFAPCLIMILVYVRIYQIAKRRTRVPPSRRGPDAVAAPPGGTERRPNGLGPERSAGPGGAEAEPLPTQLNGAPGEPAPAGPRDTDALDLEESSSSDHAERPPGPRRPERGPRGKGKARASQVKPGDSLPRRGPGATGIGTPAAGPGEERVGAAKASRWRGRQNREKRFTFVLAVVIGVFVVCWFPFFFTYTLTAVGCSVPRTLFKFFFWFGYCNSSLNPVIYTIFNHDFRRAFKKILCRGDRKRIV
# Protocol: as §1
# hα2B receptor = biological target: T4, hα2B receptor (Homo sapiens, UniProt P18089); test: Radioligand binding experiment for α2B-adrenergic receptor ([3H]-raulwolscine)
# T4 construct: expressed in transfected cells
# T4 sequence (P18089 1-450): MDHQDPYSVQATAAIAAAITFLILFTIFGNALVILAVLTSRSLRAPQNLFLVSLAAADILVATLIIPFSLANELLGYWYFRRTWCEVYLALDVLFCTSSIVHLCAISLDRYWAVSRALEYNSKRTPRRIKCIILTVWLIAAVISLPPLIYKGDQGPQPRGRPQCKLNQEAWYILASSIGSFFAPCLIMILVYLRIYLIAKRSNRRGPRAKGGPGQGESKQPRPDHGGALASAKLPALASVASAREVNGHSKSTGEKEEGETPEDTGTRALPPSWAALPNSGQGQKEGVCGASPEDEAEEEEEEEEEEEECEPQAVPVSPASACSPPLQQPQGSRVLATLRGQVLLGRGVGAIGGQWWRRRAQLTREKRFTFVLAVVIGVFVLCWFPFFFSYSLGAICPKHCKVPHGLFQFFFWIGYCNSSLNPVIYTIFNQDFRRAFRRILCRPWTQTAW
# Protocol: as §1
# [1] = CHO cell membranes with human α2C receptor, [3H]raulwolscine 1 nM
# [2] = hα2C (pIC50), CHO cell membranes with human α2C receptor, [3H]raulwolscine 1 nM
# [3] = hα2B (pIC50), CHO cell membranes with human α2B receptor, [3H]raulwolscine 1 nM
# T2 sequence (P31645 whole entry): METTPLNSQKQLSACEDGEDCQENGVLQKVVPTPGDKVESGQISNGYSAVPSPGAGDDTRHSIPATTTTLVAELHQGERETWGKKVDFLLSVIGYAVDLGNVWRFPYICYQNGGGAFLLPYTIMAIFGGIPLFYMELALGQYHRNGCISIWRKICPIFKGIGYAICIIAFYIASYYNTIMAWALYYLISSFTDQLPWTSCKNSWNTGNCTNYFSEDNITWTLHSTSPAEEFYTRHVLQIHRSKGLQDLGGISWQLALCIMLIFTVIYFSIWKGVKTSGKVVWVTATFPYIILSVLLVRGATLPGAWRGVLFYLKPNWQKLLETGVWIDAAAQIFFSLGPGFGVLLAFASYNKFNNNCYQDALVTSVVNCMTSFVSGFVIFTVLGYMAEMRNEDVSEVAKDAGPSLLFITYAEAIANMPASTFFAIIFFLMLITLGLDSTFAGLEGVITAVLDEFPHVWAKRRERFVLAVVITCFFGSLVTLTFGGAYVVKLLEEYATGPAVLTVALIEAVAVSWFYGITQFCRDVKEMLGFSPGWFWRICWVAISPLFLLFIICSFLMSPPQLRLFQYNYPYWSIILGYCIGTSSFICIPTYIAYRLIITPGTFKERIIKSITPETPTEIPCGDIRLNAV
Compound,melting point,pIC50 (h5-HT transporter),pIC50 (hα2A receptor),pIC50 (hα2C receptor; [2]),pIC50 (hα2B receptor; [3]),other results
"C/C(=C\c1ccc(F)cc1)CN1CCN(CC2ON=C3c4sccc4OCC32)CC1 (stereo not drawn) [Compound 27, 3-{4-[3-(4-fluoro-pheny)-2-methyl-allyl]-piperazin-1-ylmethyl}-3a,4-dihydro-3H-2,5-dioxa-8-thia-1-aza-as-indacene]",142.3 to 146 °C,–,–,–,–,IC50 (hα2C receptor; [1]): 7.94 nM; IC50 (h5-HT transporter): 79.4 nM; IC50 (hα2A receptor): 2 nM
"C/C(=C\c1ccccc1)CN1CCN(C[C@@H]2ON=C3c4cc5cc[nH]c5cc4OC[C@H]32)CC1 (relative stereo) [Compound 1, 3-[4-(2-Methyl-3-phenyl-allyl)-piperazin-1-ylmethyl]-3a,4-dihydro-3H-2,5-dioxa-1,7-diaza-dicyclopenta[a,g]naphthalene]",173.2 to 179.1 °C,8.40,8.30,–,–,pIC50 (hα2C receptor): 9.00; pIC50 (hα2B receptor): 8.40
c1ccc2cc(CN3CCN(CC4ON=C5c6cc7cc[nH]c7cc6OCC54)CC3)ccc2c1 (racemic) [Compound 4],–,–,–,–,–,"hα2C (pIC50) (hα2C receptor; [1]): 8.4; hα2B (pIC50) (hα2B receptor; CHO cell membranes with human α2B receptor, [3H]raulwolscine 1 nM): 7.3; 5-HTT (pIC50) (h5-HT transporter): 8.8; hα2A (pIC50) (hα2A receptor): 7.6"
C/C(=C\c1ccccc1)CN1CCN(CC2ON=C3c4cc5ccn(CCO)c5cc4OCC32)CC1 (stereo not drawn) [Compound 8],–,8.40,7.80,8.70,8.30,–
"C/C(=C\c1ccc(F)cc1)CN1CCN(CC2ON=C3c4ncccc4OCC32)CC1 (stereo not drawn) [Compound 24, 3-{4-[3-(4-fluoro-phenyl)-2-methyl-allyl]-piperazin-1-ylmethyl}-3a,4-dihydro-3H-2,5-dioxa-1,9-diaza-cyclopenta[a]naphthalene]",145.6 to 152.3 °C,–,–,–,–,IC50 (hα2C receptor; [1]): 31.6 nM; IC50 (h5-HT transporter): 200 nM; IC50 (hα2A receptor): 6.31 nM
"C/C(=C\c1ccccc1)CN1CCN(CC2ON=C3c4ccncc4OCC32)CC1 (stereo not drawn) (as salt: oxalate) [Compound 18, 3-[4-(2-methyl-3-phenyl-allyl)-piperazin-1-ylmethyl]-3a,4-dihydro-3H-2,5-dioxa-1,7-diaza-cyclopenta[a]naphthalene oxalate salt (1/1)]",216.8 to 220.5 °C,–,–,–,–,–
"C/C(=C\c1ccccc1)CN1CCN(CC2ON=C3c4cc5ccn(CCO)c5cc4OCC32)CC1 (single isomer, unassigned) [Compound 16, A-2-{3-[4-(2-methyl-3-phenyl-allyl)-piperazin-1-ylmethyl]-3a,4-dihydro-3H-2,5-dioxa-1,7-diaza-dicyclopenta[a,g]naphthalen7-yl}-ethanol]",167.9 to 170.2 °C,–,6.50,7.30,7.70,5-HTT (pIC50) (h5-HT transporter): 6.3
"C/C(=C\c1ccccc1)CN1CCN(CC2ON=C3c4cc5ccn(CCO)c5cc4OCC32)CC1 (single isomer, unassigned) [Compound 17, B-2-{3-[4-(2-methyl-3-phenyl-allyl)-piperazin-1-ylmethyl]-3a,4-dihydro-3H-2,5-dioxa-1,7-diaza-dicyclopenta[a,g]naphthalen7-yl}-ethanol]",167.5 to 170.5 °C,6.30,8.00,8.70,8.30,–
"COC(=O)Cn1ccc2cc3c(cc21)OCC1C3=NOC1CN1CCN(C/C(C)=C/c2ccccc2)CC1 (stereo not drawn) [Compound 10, {3-[4-(2-methyl-3-phenyl-allyl)-piperazin-1-ylmethyl]-3a,4-dihydro-3H-2,5-dioxa-1,7-diaza-dicyclopenta[a,g]naphthlen-7-yl}-acetic acid methyl ester]",–,8.70,7.90,–,–,pIC50 (hα2C receptor): 9.10; pIC50 (hα2B receptor): 8.30
